Results: patent US20090018134A1, “Compounds - 945” (AstraZeneca AB, priority 2007, published 2009)

These molecules were tested against T1, mTOR (Homo sapiens, UniProt P42345) (assay: In Vitro mTOR Kinase Assay (Echo), Test (a)(ii)). Conditions: read-out: mTOR Kinase Assay (Echo).
T1 construct: FLAG; made in house
Assay type: biochemical
Method in brief: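 Inhibition expressed as IC50 from an AlphaScreen read-out: phospho-T389 p70 S6K antibody plus streptavidin donor/protein A acceptor beads, left overnight in the dark. The kinase reaction ran 2 h at room temperature, then was stopped with EDTA. Enzyme: FLAG-purified mTOR 1362-2549 fragment from stable HEK293 cells.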

T1 sequence (P42345 1362-2549): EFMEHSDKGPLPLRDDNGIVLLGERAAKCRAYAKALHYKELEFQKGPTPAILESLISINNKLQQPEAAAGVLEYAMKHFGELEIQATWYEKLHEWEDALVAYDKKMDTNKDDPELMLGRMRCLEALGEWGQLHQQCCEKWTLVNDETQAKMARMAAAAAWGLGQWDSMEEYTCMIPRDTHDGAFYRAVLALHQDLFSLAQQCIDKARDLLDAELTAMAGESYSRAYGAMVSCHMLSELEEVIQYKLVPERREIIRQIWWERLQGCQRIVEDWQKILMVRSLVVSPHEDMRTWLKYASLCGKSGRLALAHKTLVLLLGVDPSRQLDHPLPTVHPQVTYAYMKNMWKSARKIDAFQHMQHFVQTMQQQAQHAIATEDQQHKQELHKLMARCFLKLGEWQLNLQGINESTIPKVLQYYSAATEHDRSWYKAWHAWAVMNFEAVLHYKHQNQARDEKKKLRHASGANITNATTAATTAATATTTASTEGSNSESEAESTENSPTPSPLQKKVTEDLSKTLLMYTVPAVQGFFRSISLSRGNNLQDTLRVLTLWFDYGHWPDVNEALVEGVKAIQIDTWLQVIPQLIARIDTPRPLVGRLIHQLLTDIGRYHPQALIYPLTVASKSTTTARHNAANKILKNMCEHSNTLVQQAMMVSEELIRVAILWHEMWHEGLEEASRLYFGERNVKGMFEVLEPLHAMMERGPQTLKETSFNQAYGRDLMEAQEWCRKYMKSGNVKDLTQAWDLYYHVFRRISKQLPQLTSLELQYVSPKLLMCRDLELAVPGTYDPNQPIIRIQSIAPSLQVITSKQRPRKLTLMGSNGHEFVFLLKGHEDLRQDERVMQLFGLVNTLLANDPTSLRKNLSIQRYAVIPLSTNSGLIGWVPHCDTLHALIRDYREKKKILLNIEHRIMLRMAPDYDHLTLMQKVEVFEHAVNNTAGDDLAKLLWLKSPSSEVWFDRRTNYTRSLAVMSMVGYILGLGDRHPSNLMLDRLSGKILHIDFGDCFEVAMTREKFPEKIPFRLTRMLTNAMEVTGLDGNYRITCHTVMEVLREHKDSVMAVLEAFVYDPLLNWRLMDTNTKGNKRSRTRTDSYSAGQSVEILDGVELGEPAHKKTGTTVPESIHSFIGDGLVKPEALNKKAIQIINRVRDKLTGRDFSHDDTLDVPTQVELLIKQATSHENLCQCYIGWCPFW

Row | IC50 [nM] | SMILES
1 | 6.46 | CC(C)S(=O)(=O)C1(c2cc(N3CCOC[C@@H]3C)nc(-c3ccc(NC(=O)NC4CCC4)cc3)n2)CC1 [Example 7c, 3-cyclobutyl-1-[4-[4-[(3S)-3-methylmorpholin-4-yl]-6-(1-propan-2-ylsulfonylcyclopropyl)pyrimidin-2-yl]phenyl]urea]
2 | 5.96 | C[C@H]1COCCN1c1cc(C2(S(=O)(=O)C3CC3)CC2)nc(-c2ccc(NC(=O)NCCC#N)cc2)n1 [Example 3o, 3-(2-cyanoethyl)-1-[4-[4-(1-cyclopropylsulfonylcyclopropyl)-6-[(3S)-3-methylmorpholin-4-yl]pyrimidin-2-yl]phenyl]urea]
3 | 2.45 | C[C@H]1COCCN1c1cc(C2(S(C)(=O)=O)CCCC2)nc(-c2ccc(NC(=O)Nc3cnn(C)c3)cc2)n1 [Example 4m, 1-[4-[4-[(3S)-3-methylmorpholin-4-yl]-6-(1-methylsulfonylcyclopentyl)pyrimidin-2-yl]phenyl]-3-(1-methylpyrazol-4-yl)urea]
4 | 8.13 | Cc1nc(S(=O)(=O)C2(c3cc(N4CCOC[C@@H]4C)nc(-c4ccc(NC(=O)Nc5cnn(C)c5)cc4)n3)CC2)sc1C [Example 81, 1-[4-[4-[1-[(4,5-Dimethyl-1,3-thiazol-2-yl)sulfonyl]cyclopropyl]-6-[(3S)-3-methylmorpholin-4-yl]pyrimidin-2-yl]phenyl]-3-(1-methylpyrazol-4-yl)urea]

Same assay, conditions: table of enzyme assay Test (a)(ii); read-out: Test (a)(ii) IC50

Row | SMILES | IC50 [nM]
5 | C[C@H]1COCCN1c1cc(C2(S(C)(=O)=O)CCC2)nc(-c2ccc(NC(=S)NCCCO)cc2)n1 [Example 62d, 3-(3-hydroxypropyl)-1-[4-[4-[(3S)-3-methylmorpholin-4-yl]-6-(1-methylsulfonylcyclobutyl)pyrimi-din-2-yl]phenyl]thiourea] | 22
6 | C[C@H]1COCCN1c1cc(C2(S(=O)(=O)C(C)(C)C)CC2)nc(-c2ccc(NC(=O)NCCCO)cc2)n1 [Example 18l, 1-[4-[4-(1-tert-butylsulfonylcyclopropyl)-6-[(3S)-3-methylmorpholin-4-yl]pyrimidin-2-yl]phenyl]-3-(3-hydroxypropyl)urea] | 10.2
7 | C[C@H]1COCCN1c1cc(C2(S(=O)(=O)CCCO)CCC2)nc(-c2ccc(NC(=S)NC(C)(C)CO)cc2)n1 [Example 99d, 3-(1-hydroxy-2-methylpropan-2-yl)-1-[4-[4-[1-(3-hydroxypropylsulfonyl)cyclobutyl]-6-[(3S)-3-methylmorpholin-4-yl]pyrimidin-2-yl]phenyl]thiourea] | 219
8 | C[C@H]1COCCN1c1cc(C2(S(=O)(=O)CCCO)CC2)nc(-c2ccc(NC(=O)Nc3cnn(C)c3)cc2)n1 [Example 31j, 1-[4-[4-[1-(3-hydroxypropylsulfonyl)cyclopropyl]-6-[(3S)-3-methylmorpholin-4-yl]pyrimidin-2-yl]phenyl]-3-(1-methylpyrazol-4-yl)urea] | 1.03
9 | NC(=O)CS(=O)(=O)C1(c2cc(N3CCOCC3)nc(-c3ccc(NC(=O)NC4CC4)cc3)n2)CC1 [Example 46, 2-[1-[2-[4-(Cyclopropylcarbamoylamino)phenyl]-6-morpholin-4-ylpyrimidin-4-yl]cyclopropyl]sulfonylacetamide] | 4.56
10 | CCS(=O)(=O)C1(c2cc(N3CCOC[C@@H]3C)nc(-c3ccc(NC(=O)NCC(F)F)cc3)n2)CC1 [Example 36eg, 3-(2,2-difluoroethyl)-1-[4-[4-(1-ethylsulfonylcyclopropyl)-6-[(3S)-3-methylmorpholin-4-yl]pyrimidin-2-yl]phenyl]urea] | 8.77
11 | CCS(=O)(=O)C1(c2cc(N3CCOC[C@@H]3C)nc(-c3ccc(NC(=O)NCc4ncc[nH]4)cc3)n2)CCC1 [Example 87a, 1-[4-[4-(1-ethylsulfonylcyclobutyl)-6-[(3S)-3-methylmorpholin-4-yl]pyrimidin-2-yl]phenyl]-3-(1H-imidazol-2-ylmethyl)urea] | 88.7
12 | C[C@H]1COCCN1c1cc(C2(S(=O)(=O)C3CC3)CCOCC2)nc(-c2ccc(NC(=O)NCCN(C)C)cc2)n1 [Example 23g, 1-[4-[4-(4-cyclopropylsulfonyloxan-4-yl)-6-[(3S)-3-methylmorpholin-4-yl]pyrimidin-2-yl]phenyl]-3-(2-dimethylaminoethyl)urea] | 1210
13 | Cc1nc(S(=O)(=O)C2(c3cc(N4CCOC[C@@H]4C)nc(-c4ccc(NC(=O)Nc5cnn(C)c5)cc4)n3)CC2)sc1C [Example 81, 1-[4-[4-[1-[(4,5-Dimethyl-1,3-thiazol-2-yl)sulfonyl]cyclopropyl]-6-[(3S)-3-methylmorpholin-4-yl]pyrimidin-2-yl]phenyl]-3-(1-methylpyrazol-4-yl)urea] | 13.7
14 | CC[C@H]1COCCN1c1cc(C2(S(C)(=O)=O)CC2)nc(-c2ccc(NC(=O)NC3CC3)cc2)n1 [Example 84a, 3-cyclopropyl-1-[4-[4-[(3S)-3-ethylmorpholin-4-yl]-6-(1-methylsulfonylcyclopropyl)pyrimidin-2-yl]phenyl]urea] | 9.09
15 | CCS(=O)(=O)C1(c2cc(N3CCOC[C@@H]3C)nc(-c3ccc(NC(=O)NCCCO)cc3)n2)CCC1 [Example 87b, 1-[4-[4-(1-ethylsulfonylcyclobutyl)-6-[(3S)-3-methylmorpholin-4-yl]pyrimidin-2-yl]phenyl]-3-(3-hydroxypropyl)urea] | 17.7
16 | Cn1cc(NC(=O)Nc2ccc(-c3nc(N4CCOCC4)cc(C4(S(=O)(=O)c5ccncc5)CC4)n3)cc2)cn1 [Example 36as, 1-(1-methylpyrazol-4-yl)-3-[4-[4-morpholin-4-yl-6-(1-pyridin-4-ylsulfonylcyclopropyl)pyrimidin-2-yl]phenyl]urea] | 9.11
17 | C[C@H]1COCCN1c1cc(C2(S(C)(=O)=O)CC2)nc(-c2ccc(NC(=S)NC3CC3)cc2)n1 [Example 35d, 3-cyclopropyl-1-[4-[4-[(3S)-3-methylmorpholin-4-yl]-6-(1-methylsulfonylcyclopropyl)pyrimidin-2-yl]phenyl]thiourea] | 4.11
18 | C[C@H]1COCCN1c1cc(C2(S(=O)(=O)CCCO)CC2)nc(-c2ccc(NC(=O)Nc3ncns3)cc2)n1 [Example 36b, 1-[4-[4-[1-(3-hydroxypropylsulfonyl)cyclopro-pyl]-6-[(3S)-3-methylmorpholin-4-yl]pyrimidin-2-yl]phenyl]-3-(1,2,4-thiadiazol-5-yl)urea] | 1.79
19 | Cc1csc(S(=O)(=O)C2(c3cc(N4CCOC[C@@H]4C)nc(-c4ccc(NC(=O)NCCO)cc4)n3)CCC2)n1 [Example 98e, 3-(2-hydroxyethyl)-1-[4-[4-[(3S)-3-methylmorpholin-4-yl]-6-[1-[(4-methyl-1,3-thiazol-2-yl)sulfonyl]cyclobutyl]pyrimidin-2-yl]phenyl]urea] | 3.35
20 | CNC(=O)Nc1ccc(-c2nc(N3CCOCC3)cc(C3(S(=O)(=O)c4ccncc4)CC3)n2)cc1 [Example 36at, 1-methyl-3-[4-[4-morpholin-4-yl-6-(1-pyridin-4-ylsulfonylcyclopropyl)pyrimidin-2-yl]phenyl]urea] | 6.39

Next, values leading:

Row | IC50 [nM] | SMILES
21 | 2.93 | C[C@H]1COCCN1c1cc(C2(S(=O)(=O)c3ccccc3F)CC2)nc(-c2ccc(NC(=O)NCC(F)F)cc2)n1 [Example 58d, 3-(2,2-difluoroethyl)-1-[4-[4-[1-(2-fluorophenyl)sulfonylcyclopropyl]-6-[(3S)-3-methylmorpholin-4-yl]pyrimidin-2-yl]phenyl]urea]
22 | 294 | C[C@H]1COCCN1c1cc(C2(S(=O)(=O)c3ccccc3)CC2)nc(-c2ccc(NC(=O)N(C)C3CC3)cc2)n1 [Example 36dr, 3-[4-[4-[1-(benzenesulfonyl)cyclopropyl]-6-[(3S)-3-methylmorpholin-4-yl]pyrimidin-2-yl]phenyl]-1-cyclopropyl-1-methylurea]
23 | 4.77 | CNC(=O)Nc1ccc(-c2nc(N3CCOC[C@@H]3C)cc(C3(S(=O)(=O)c4ccc(C(N)=O)cc4Cl)CC3)n2)cc1 [Example 85, 3-Chloro-4-[1-[2-[4-(methylcarbamoylamino)phenyl]-6-[(3S)-3-methylmorpholin-4-yl]pyrimidin-4-yl]cyclopropyl]sulfonylbenzamide]
24 | 3.19 | C[C@H]1COCCN1c1cc(C2(S(=O)(=O)c3ccccc3Cl)CC2)nc(-c2ccc(NC(=O)NCCO)cc2)n1 [Example 76c, 1-[4-[4-[1-(2-chlorophenyl)sulfonylcyclopropyl]-6-[(3S)-3-methylmorpholin-4-yl]pyrimidin-2-yl]phenyl]-3-(2-hydroxyethyl)urea]
25 | 13.1 | C[C@H]1COCCN1c1cc(C2(S(=O)(=O)c3ccc(NCCF)c(Cl)c3)CC2)nc(-c2ccc(NC(=O)NCCF)cc2)n1 [Example 95j, 1-[4-[4-[1-[3-chloro-4-(2-fluoroethyl-amino)phenyl]sulfonyl-cyclopropyl]-6-[(3S)-3-methylmorpho-lin-4-yl]pyrimidin-2-yl]phenyl]-3-(2-fluoroethyl)urea]
26 | 5.43 | Cc1ccc(S(=O)(=O)C2(c3cc(N4CCOC[C@@H]4C)nc(-c4ccc(NC(=O)NCC(F)F)cc4)n3)CC2)cc1 [Example 95p, 3-(2,2-difluoroethyl)-1-[4-[4-[(3S)-3-methylmorpholin-4-yl]-6-[1-(4-methylphenyl)sulfonylcyclopropyl]pyrimidin-2-yl]phenyl]urea]
27 | 7.25 | C[C@H]1COCCN1c1cc(C2(S(=O)(=O)c3c(F)cccc3F)CC2)nc(-c2ccc(NC(=O)NC3CC3)cc2)n1 [Example 86b, 3-cyclopropyl-1-[4-[4-[1-(2,6-difluorophenyl)sulfonylcyclopropyl]-6-[(3S)-3-methylmorpholin-4-yl]pyrimidin-2-yl]phenyl]urea]
28 | 8.13 | C[C@H]1COCCN1c1cc(C2(S(=O)(=O)c3ccc(F)cc3)CC2)nc(-c2ccc(NC(=O)Nc3ccccn3)cc2)n1 [Example 8l, 1-[4-[4-[1-(4-fluorophenyl)sulfonylcyclopropyl]-6-[(3S)-3-methylmorpholin-4-yl]pyrimidin-2-yl]phenyl]-3-pyridin-2-yl-urea]
29 | 30.3 | C[C@H]1COCCN1c1cc(C2(S(=O)(=O)C(C)(C)C)CC2)nc(-c2ccc(NC(=O)Nc3ccc(C(F)(F)F)cc3)cc2)n1 [Example 18j, 1-[4-[4-(1-tert-butylsulfonylcyclopropyl)-6-[(3S)-3-methylmorpholin-4-yl]pyrimidin-2-yl]phenyl]-3-[4-(trifluoromethyl)phenyl]urea]
30 | 0.209 | C[C@H]1COCCN1c1cc(C2(S(=O)(=O)CCCO)CC2)nc(-c2ccc(NC(=O)Nc3ccc(C(F)(F)F)cc3)cc2)n1 [Example 31h, 1-[4-[4-[1-(3-hydroxypropylsulfonyl)cyclopropyl]-6-[(3S)-3-methylmorpholin-4-yl]pyrimidin-2-yl]phenyl]-3-[4-(trifluoromethyl)phenyl]urea]
